Source: patent publication US11246857B2, “Anti-fungal inhibitors” (THE JOHNS HOPKINS UNIVERSITY, priority 2017, dated 2022)
Converted amounts (≈) assume the structure as drawn. “Also recorded” adds a separate entry of the source. Where two headings read alike, the source gives them in different places.

Legend:
C. neoformans [1] = test: Growth inhibition assay (Bioscreen C, 2-fold dilution series, plating for fungicidal vs fungistatic) in C. neoformans; format: cell-based, Cryptococcus neoformans H99; details: for fungicidal activity, lowest concentration: plated after 72 h, 24 h recovery at 30° on Sabouraud agar; for antifungal activity (in words): dose-response
Description: Primary screen and dose-response of selected candidates. To identify antifungal candidates in the MMV Malaria Box, the inventors initially casted the widest possible net. Growth inhibition assays were done using the Bioscreen C™ with constant agitation, in rich media and physiological relevant temperature of 37° to test the 400 antimalarial compounds against C. neoformans. […] To examine whether or not each dose was fungicidal or just fungistatic, the inventors plated a sample of each dilution after 72 hours. They were allowed to grow at the optimal growth temperature of 30° for 24 hours on Sabouraud rich agar plates and colonies were examined for growth. […]
(§1) Strains. H99 (Serotype A) is a well-characterized wild type laboratory reference strain of Cryptococcus neoformans (22). H99 was selected because it is a virulent strain widely by the field. Cryptococcus gattii strain R265 is used as the primary reference strain to which the genome is based (ATCC MYA-4093). This strain was isolated from the Vancouver Island (British Columbia, Canada) outbreak of 2004 (23, 24). H99 and R265 were maintained in Sabouraud (Sab) dextrose broth at 30° C. with constant 200 RPM agitation. One day prior to each experimental drug treatment, Sab broth was inoculated from glycerol stock and grown overnight to log phase before washing with PBS and resuspending in fresh Sab broth prior to treatment.
(§2) Compound library. 400 compounds were made available by the Medicines for Malaria Venture (Geneva, Switzerland) in the form of the open-access MMV Malaria Box. Compounds were stored at −80° C. in 100% DMSO at a concentration of 10 mM. Before usage, compounds were thawed at room temperature and thoroughly mixed. Compounds were diluted in 2-fold series 10 mM down to […] with DMSO before subsequent growth inhibition assays. Growth inhibition assays. The effectiveness of these MMV Malaria Box compounds against C. neoformans was measured by turbidity over time. The Bioscreen C™ (Growth Curves USA, Piscataway, N.J.) allows us to analyze ˜60 compounds at a time in triplicate with constant temperature and agitation. Assays were measured at 420-580 nm, wideband range every 15′ for 72 h at 37° C. to simulate physiologically relevant temperatures. Wideband is generally used for turbidity measurements, as it is mostly insensitive to changes in color. […] We inoculated 5×10^3 H99 C. neoformans and SC5314 C. albicans in 200 μl of Sabouraud dextrose broth in each of the honeycomb (HC-2) plate's 100 wells. A two-fold dilution series of each compound from 50 μM down to 0.39 μM final concentration were tested for effects against C. neoformans. To qualitatively differentiate fungistatic and fungicidal activity, 5 μl of each well after 72 h were spotted on Sabouraud dextrose agar rich media plates and allowed to grow at the optimal temperature 30° C. to induce a full recovery of viable yeast. Spots were noted after 24 h to identify fungicidal versus fungistatic concentrations of each compound. […] Mammalian cell viability and toxicity assays.

human fibroblast = test: Toxicity against human fibroblast; format: cell-based
Text: XlogP values are derived from PubChem and describe the lipophilicity of the molecule. The topological polar surface area (tPSA) is a metric for predicting cell penetration, with values <140 to be favorable. […] Toxicity against human fibroblast was used to calculate the therapeutic index TI.

[2] = tested on: murine bone marrow derived macrophages (BMDM); test: Mammalian cell viability, MTT assay in BMDM; format: cell-based
L. prolificans = test: Growth inhibition assay, 2-fold dilution series, in L. prolificans; format: cell-based, Lomentospora prolificans; details: for MIC: Lomentospora prolificans, after 72 h
C. neoformans [3] = test: Imaging flow cytometry (Amnis ImageStream) of DM262 treated C. neoformans; format: cell-based, Cryptococcus neoformans
C. albicans = test: Growth inhibition assay, 2-fold dilution series, in C. albicans; format: cell-based, Candida albicans SC5314; details: for MIC: Candida albicans, after 72 h
Description: as §2

C. gattii = test: Growth inhibition assay, 2-fold dilution series, in C. gattii; format: cell-based, Cryptococcus gattii R265; details: for MIC: Cryptococcus gattii, after 72 h
Description: as §1, §2

[4] = tested on: murine bone marrow derived macrophages (BMDM); test: Mammalian cell lysis, LDH release assay in BMDM; format: cell-based
[5] = 72 h drug exposure in liquid culture, then recovery on agar plates overnight
[6] = Cryptococcus neoformans, C. neoformans, after 72 h, read-out: MIC
[7] = highest concentration studied 50 μM

| Compound | MIC (C. neoformans [1]; [5]) [µg/mL] | fold more effective than fluconazole (fungicidal activity) (C. neoformans [1]; C. neoformans) [fold] | fungicidal activity, lowest concentration (C. neoformans [1]; C. neoformans) [µM] | Toxicity human fibroblast (human fibroblast) [µM] | MIC (L. prolificans) [µM] | MIC (C. albicans) [µM] | MIC (C. neoformans [1]; [6]) [µM] | MIC (C. gattii) [µM] | antifungal activity (in words) (C. neoformans [1]; C. neoformans) | also measured |
| --- | --- | --- | --- | --- | --- | --- | --- | --- | --- | --- |
| O=C(Nc1cccc(C(F)(F)F)c1)c1cc(Cl)ccc1O [Compound 155] | 0.5 | 8 | 3.12 | 0.024 | – | – | – | – | – | – |
| Nc1ccc(-c2nc3ccc(Cc4ccc5nc(C6CCC(N)CC6)[nH]c5c4)cc3[nH]2)cc1 (centres unmarked) [DM262] | 0.3 | 16 | 1.56 | 11.4 | 6.3 (≈ 2.75 µg/mL) | 0.8 (≈ 0.349 µg/mL) | 0.8 | 50 (≈ 21.8 µg/mL) | – | concentration with minimal variance from DMSO vehicle control ([2]; BMDM): up to 12.5 μM; LD50 ([2]; BMDM viability): 50 µM; concentration at which cells were dramatically trending towards apoptosis (apoptotic index, IDEAS 6.2) (C. neoformans [3]; 24 h treatment, morphology of the nucleus): 6.25 µM; effect on average size of the cells (C. neoformans [3]; brightfield, ImageStream): No significant change; also recorded: no effect; fold more effective than fluconazole (fungistatic activity) (C. neoformans [1]; C. neoformans): 32 fold; fungistatic activity, lowest concentration (C. neoformans [1]; C. neoformans, 72 h): 0.8 µM; concentration giving significant delay in growth (C. gattii): ≥ 12.5 µM; time until log phase is reached (C. gattii; 12.5 μM treatment, growth curves): approximately 48 h; LD50 ([4]; BMDM cell lysis, LDH release): 50 µM; concentration with minimal variance from DMSO vehicle control ([4]; BMDM, LDH): up to 12.5 μM |
| OC(Cn1cncn1)(Cn1cncn1)c1ccc(F)cc1F [Fluconazole] | 7.6 | – | – | – | > 50 | > 50 | 25 | 50 (≈ 15.3 µg/mL) | – | fungicidal concentration (L. prolificans; [7]): > 50 µM; response in growth inhibition assay (in words) (L. prolificans; up to the highest concentration tested, 50 μM): complete resistance; effect on final OD420-580 (in words) (C. albicans): only slight decrease; fungicidal concentration (C. albicans; [7]): > 50 µM; concentration at which growth was unaffected (C. gattii): ≤ 6.3 µM |
| Cc1ccc2cc3c(N)c4c(C)ccc(C)c4nc3nc2c1 [Compound 253] | 7.2 | – | – | 11.4 | – | – | – | – | low activity | – |
| Cc1ccc2c(c1)c1cc(C)ccc1n2CC(O)CNC1CCCCC1 (centres unmarked) [Compound 380] | 0.9 | 8 | 3.12 | 4.03 | – | – | – | – | – | – |
| Cc1ccc(Nc2nc(-c3ccccn3)cs2)cc1 [Compound 64] | 1.6 | – | – | – | – | – | – | – | low activity | – |
